This experiment deals with T1, wild-type mouse TMEM16A (Mus musculus, UniProt Q8BHY3).
T1 construct: expressed in transfected cells; host or cells: HEK293T
T1 sequence (Q8BHY3 1-960): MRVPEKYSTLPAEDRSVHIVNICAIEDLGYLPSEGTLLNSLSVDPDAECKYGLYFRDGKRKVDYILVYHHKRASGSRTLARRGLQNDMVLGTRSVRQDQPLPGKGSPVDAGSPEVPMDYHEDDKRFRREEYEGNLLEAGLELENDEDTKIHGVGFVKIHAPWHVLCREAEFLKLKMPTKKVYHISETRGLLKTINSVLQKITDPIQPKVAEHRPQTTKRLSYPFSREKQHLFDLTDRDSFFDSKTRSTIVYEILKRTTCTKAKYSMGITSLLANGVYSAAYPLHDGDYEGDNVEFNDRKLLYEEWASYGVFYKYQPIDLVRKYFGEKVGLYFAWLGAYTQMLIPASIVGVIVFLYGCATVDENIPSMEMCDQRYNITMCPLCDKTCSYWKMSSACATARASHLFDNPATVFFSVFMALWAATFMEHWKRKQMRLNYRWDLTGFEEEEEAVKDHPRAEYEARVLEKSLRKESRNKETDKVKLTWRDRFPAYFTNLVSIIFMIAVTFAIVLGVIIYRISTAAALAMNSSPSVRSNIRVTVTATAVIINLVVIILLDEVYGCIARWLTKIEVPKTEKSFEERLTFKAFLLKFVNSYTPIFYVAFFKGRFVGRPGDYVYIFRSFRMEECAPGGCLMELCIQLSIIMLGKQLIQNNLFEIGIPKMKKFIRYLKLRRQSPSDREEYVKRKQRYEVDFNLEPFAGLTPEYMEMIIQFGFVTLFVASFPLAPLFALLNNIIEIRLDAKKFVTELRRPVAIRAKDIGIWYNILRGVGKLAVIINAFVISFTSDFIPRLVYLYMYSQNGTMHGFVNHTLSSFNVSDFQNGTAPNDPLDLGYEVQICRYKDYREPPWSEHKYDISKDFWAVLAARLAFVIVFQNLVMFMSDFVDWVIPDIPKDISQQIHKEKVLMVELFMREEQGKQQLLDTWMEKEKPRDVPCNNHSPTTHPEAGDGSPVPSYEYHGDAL
As to the kind of experiment: Global fit of 1PBC inhibition profiles to an open-channel block mechanism. The class given is cell-based. The text has this:
The inhibition profiles of 1PBC at different Ca^2+ concentrations were fitted to a mechanism assuming that the blocker preferentially binds to the open state. This was incorporated by adding a blocker binding step to the open state in a gating mechanism that we described previously[28] (Supplementary Fig. 9a). The matrix notation of this mechanism[73] is 4 Q=−k01−bk07v07^δb/2k0100000bk07v07^δb/2k10−k10−k12k12000000k21−k21−k23−k24k23k2400000k32−k32−k35v35^δCa/20k35v35^δCa/20000xk42v42^δCa/20−xk42v42^δCa/2−k45k4500000xk53v53^δCa/2k54−xk53v53^δCa/2−k54−k56v56^δCa/2k56v56^δCa/2000000xk65v65^δCa/2−xk65v65^δCa/20k70v70^δb/2000000−k70v70^δb/2 where x and b are the molar concentration of Ca^2+ and the blocker respectively, and the subscripts indicate the transition described by the rate constant k in s^−1, for example, k01 corresponds to the rate constant of the transition from state 0 to 1. δb and δCa are the fraction of membrane potential that modulates the corresponding transitions. […]
The equilibrium occupancy of states was calculated using[73],[74]7 P∞=P(0)(Vλ=0V^−1λ=0) where P(0) is the initial occupancy and V can be obtained from the Eigen decomposition of Q8 Q=VΛV^−1 and9 Λ=λ1⋱λnV=v11⋯vn1⋮⋱⋮v1n⋯vnn are the Eigenvalue and Eigenvector matrices respectively. The open probability calculated using Eq. 7 was used to compute the squared difference for each data point. […]

Where “and” joins values, the source holds several entries; their conditions need not be identical. Equal values may be shown once.

Results on one molecule are retold here after PMC9120017, “Inhibition mechanism of the chloride channel TMEM16A by the pore blocker 1PBC” (Nature Communications, 2022).

One may read the Kd as the free concentration of one partner at which half of the binding sites on the other are occupied at equilibrium, for simple one-to-one binding. `N#Cc1c(C(F)(F)F)cc(O)n2c1nc1ccccc12` [1PBC]: the “Apparent valence δb” value (fit at +80 and −80 mV) is ~ 0.27 and 0.27 ± 0.025. For the setting “zero mV, read-out: Kd 1PBC (open state)”, the dissociation constant (Kd) was ~3.6 µM and 3.6 µM.
